{"source": "patent US20080153896A1", "about": "“Polymorphic Forms of an HMG-CoA Reductase Inhibitor and Uses Thereof” (priority 2006, published 2008)", "assay": "Stability (integrity) testing of amorphous and polymorphic form under storage conditions, RP-HPLC", "assay_type": "physicochemical", "set-up": "Impurity RRT 1.104 / Impurity RRT 1.698: unit not given beside the values", "settings": "for Total: in %", "procedure": "The integrity of the different forms of the (3R, 5R)-7-[2-(4-fluorophenyl)-5-isopropyl-3-phenyl-4-[(4-hydroxymethylphenylamino)carbonyl]-pyrrol-1-yl]-3,5-dihydroxy-heptanoic acid, hemi calcium salt, was tested under different atmospheric conditions to determine the stability of the amorphous and polymorphic form of the drug in various storage environments. Reversed Phase-HPLC (RP-HPLC) was used to separate (3R, 5R)-7-[2-(4-fluorophenyl)-5-isopropyl-3-phenyl-4-[(4-hydroxymethylphenylamino)carbonyl]-pyrrol-1-yl]-3,5-dihydroxy-heptanoic acid, hemi calcium salt, from smaller molecules representing breakdown products as well as oxidized drug. The relative amount of the drug was reported as a percent of total absorption by UV. The total peak area of all UV absorption impurities was used to define total impurity of the drug. Impurities are defined by their relative retention time (RRT) compared to native drug. Samples were injected onto a C18 column using standard temperature, gradient and run-time conditions.\nThe results of this integrity testing for the amorphous form of (3R, 5R)-7-[2-(4-fluorophenyl)-5-isopropyl-3-phenyl-4-[(4-hydroxymethylphenylamino)carbonyl]-pyrrol-1-yl]-3,5-dihydroxy-heptanoic acid, hemi calcium salt, is shown in Table 5.\nThree separate batches of polymorphic Form I of (3R, 5R)-7-[2-(4-fluorophenyl)-5-isopropyl-3-phenyl-4-[(4-hydroxymethylphenylamino)carbonyl]-pyrrol-1-yl]-3,5-dihydroxy-heptanoic acid, hemi calcium salt, were prepared and tested under the same atmospheric conditions described for the amorphous form."}
{"smiles": "CC(C)c1c(C(=O)Nc2ccc(CO)cc2)c(-c2ccccc2)c(-c2ccc(F)cc2)n1CC[C@@H](O)C[C@@H](O)CC(=O)[O-].CC(C)c1c(C(=O)Nc2ccc(CO)cc2)c(-c2ccccc2)c(-c2ccc(F)cc2)n1CC[C@@H](O)C[C@@H](O)CC(=O)[O-].[Ca+2]", "note": "[PP00204, (3R, 5R)-7-[2-(4-fluorophenyl)-5-isopropyl-3-phenyl-4-[(4-hydroxymethylphenylamino)carbonyl]-pyrrol-1-yl]-3,5-dihydroxy-heptanoic acid, hemi calcium salt]", "values": [{"measurement": "Impurity RRT 0.731", "setting": "5° C. 1 month", "result": 0.030}, {"measurement": "Impurity RRT 0.832", "setting": "5° C. 1 month", "result": 0.034}, {"measurement": "Impurity RRT 0.876", "setting": "5° C. 1 month", "result": 0.150}, {"measurement": "Impurity RRT 0.952", "setting": "5° C. 1 month", "result": 0.040}, {"measurement": "Impurity RRT 0.965", "setting": "5° C. 1 month", "result": 0.532}, {"measurement": "Impurity RRT 0.974", "setting": "5° C. 1 month", "result": 0.052}, {"measurement": "Impurity RRT 0.991", "setting": "5° C. 1 month", "result": 0.022}, {"measurement": "Impurity RRT 1.024", "setting": "5° C. 1 month", "result": 0.459}, {"measurement": "Impurity RRT 1.041", "setting": "5° C. 1 month", "result": 0.585}, {"measurement": "Total", "setting": "5° C. 1 month", "result": 1.904}, {"measurement": "Impurity RRT 0.885", "setting": "5° C. 2 months", "result": 0.177}, {"measurement": "Impurity RRT 0.952", "setting": "5° C. 2 months", "result": 0.048}, {"measurement": "Impurity RRT 0.965", "setting": "5° C. 2 months", "result": 0.501}, {"measurement": "Impurity RRT 0.974", "setting": "5° C. 2 months", "result": 0.067}, {"measurement": "Impurity RRT 0.991", "setting": "5° C. 2 months", "result": 0.029}, {"measurement": "Impurity RRT 1.024", "setting": "5° C. 2 months", "result": 0.508}, {"measurement": "Impurity RRT 1.041", "setting": "5° C. 2 months", "result": 0.604}, {"measurement": "Total", "setting": "5° C. 2 months", "result": 1.934}, {"measurement": "Impurity RRT 0.892", "setting": "5° C. 3 months", "result": 0.161}, {"measurement": "Impurity RRT 0.965", "setting": "5° C. 3 months", "result": 0.550}, {"measurement": "Impurity RRT 0.981", "setting": "5° C. 3 months", "result": 0.058}, {"measurement": "Impurity RRT 1.024", "setting": "5° C. 3 months", "result": 0.506}, {"measurement": "Impurity RRT 1.041", "setting": "5° C. 3 months", "result": 0.635}, {"measurement": "Total", "setting": "5° C. 3 months", "result": 1.91}, {"measurement": "Impurity RRT 0.731", "setting": "5° C. 6 months", "result": 0.037}, {"measurement": "Impurity RRT 0.832", "setting": "5° C. 6 months", "result": 0.028}, {"measurement": "Impurity RRT 0.876", "setting": "5° C. 6 months", "result": 0.014}, {"measurement": "Impurity RRT 0.892", "setting": "5° C. 6 months", "result": 0.016}, {"measurement": "Impurity RRT 0.952", "setting": "5° C. 6 months", "result": 0.024}, {"measurement": "Impurity RRT 0.965", "setting": "5° C. 6 months", "result": 0.552}, {"measurement": "Impurity RRT 1.024", "setting": "5° C. 6 months", "result": 0.582}, {"measurement": "Impurity RRT 1.041", "setting": "5° C. 6 months", "result": 0.592}, {"measurement": "Impurity RRT 1.074", "setting": "5° C. 6 months", "result": 0.028}, {"measurement": "Total", "setting": "5° C. 6 months", "result": 1.873}, {"measurement": "Impurity RRT 0.885", "setting": "25° C./60% RH 3 months", "result": 0.145}, {"measurement": "Impurity RRT 0.892", "setting": "25° C./60% RH 3 months", "result": 0.212}, {"measurement": "Impurity RRT 0.965", "setting": "25° C./60% RH 3 months", "result": 0.542}, {"measurement": "Impurity RRT 0.981", "setting": "25° C./60% RH 3 months", "result": 0.058}, {"measurement": "Impurity RRT 1.024", "setting": "25° C./60% RH 3 months", "result": 0.518}, {"measurement": "Impurity RRT 1.041", "setting": "25° C./60% RH 3 months", "result": 0.648}, {"measurement": "Total", "setting": "25° C./60% RH 3 months", "result": 2.123}, {"measurement": "Impurity RRT 0.731", "setting": "25° C./60% RH 6 months", "result": 0.031}, {"measurement": "Impurity RRT 0.832", "setting": "25° C./60% RH 6 months", "result": 0.029}, {"measurement": "Impurity RRT 0.876", "setting": "25° C./60% RH 6 months", "result": 0.133}, {"measurement": "Impurity RRT 0.892", "setting": "25° C./60% RH 6 months", "result": 0.124}, {"measurement": "Impurity RRT 0.952", "setting": "25° C./60% RH 6 months", "result": 0.037}, {"measurement": "Impurity RRT 0.965", "setting": "25° C./60% RH 6 months", "result": 0.546}, {"measurement": "Impurity RRT 1.024", "setting": "25° C./60% RH 6 months", "result": 0.618}, {"measurement": "Impurity RRT 1.041", "setting": "25° C./60% RH 6 months", "result": 0.593}, {"measurement": "Impurity RRT 1.074", "setting": "25° C./60% RH 6 months", "result": 0.068}, {"measurement": "Impurity RRT 1.104", "setting": "25° C./60% RH 6 months", "result": 0.037}, {"measurement": "Total", "setting": "25° C./60% RH 6 months", "result": 2.216}, {"measurement": "Impurity RRT 0.885", "setting": "30° C./55% RH 6 months", "result": 0.187}, {"measurement": "Impurity RRT 0.892", "setting": "30° C./55% RH 6 months", "result": 0.168}, {"measurement": "Impurity RRT 0.965", "setting": "30° C./55% RH 6 months", "result": 0.699}, {"measurement": "Impurity RRT 1.024", "setting": "30° C./55% RH 6 months", "result": 0.693}, {"measurement": "Impurity RRT 1.041", "setting": "30° C./55% RH 6 months", "result": 0.777}, {"measurement": "Impurity RRT 1.074", "setting": "30° C./55% RH 6 months", "result": 0.103}, {"measurement": "Impurity RRT 1.104", "setting": "30° C./55% RH 6 months", "result": 0.032}, {"measurement": "Total", "setting": "30° C./55% RH 6 months", "result": 2.659}, {"measurement": "Impurity RRT 0.731", "setting": "30° C./65% RH 1 month", "result": 0.038}, {"measurement": "Impurity RRT 0.832", "setting": "30° C./65% RH 1 month", "result": 0.037}, {"measurement": "Impurity RRT 0.876", "setting": "30° C./65% RH 1 month", "result": 0.145}, {"measurement": "Impurity RRT 0.892", "setting": "30° C./65% RH 1 month", "result": 0.038}, {"measurement": "Impurity RRT 0.952", "setting": "30° C./65% RH 1 month", "result": 0.042}, {"measurement": "Impurity RRT 0.965", "setting": "30° C./65% RH 1 month", "result": 0.512}, {"measurement": "Impurity RRT 0.974", "setting": "30° C./65% RH 1 month", "result": 0.054}]}
